This is an account of results in patent publication US5981521A, “Tetrahydroisoquinoline derivatives as LHRH antagonists” (Abbott Laboratories, priority 1998, dated 1999).

Where a name gives a salt, the structure may show the parent alone.

The target of one assay is T1, LHRH rat pituitary receptor (Rattus norvegicus, UniProt P30969).
T1 construct: from tissue; host or cells: rat pituitary
T1 sequence (P30969 1-327): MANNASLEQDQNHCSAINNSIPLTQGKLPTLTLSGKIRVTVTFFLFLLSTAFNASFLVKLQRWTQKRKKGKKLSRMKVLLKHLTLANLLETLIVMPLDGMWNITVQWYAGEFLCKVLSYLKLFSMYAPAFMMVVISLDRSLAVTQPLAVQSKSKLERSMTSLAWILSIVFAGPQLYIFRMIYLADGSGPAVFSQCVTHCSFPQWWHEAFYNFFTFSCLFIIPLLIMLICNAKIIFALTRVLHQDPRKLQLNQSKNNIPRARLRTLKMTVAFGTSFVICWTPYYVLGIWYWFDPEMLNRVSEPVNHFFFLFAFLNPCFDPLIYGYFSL
Nature of the assay: LHRH rat pituitary receptor binding. Particulars: Table 2: compounds of formula (VI), by isoquinolinyl moiety R. On the procedure:
Representative compounds of the present invention were evaluated in vitro for potency against for LHRH rat pituitary receptor binding [pK, ]. Methods for the assay procedures are 10 described in […] al. J Med. Chem., 32: 2340-2344 (1989). Values of pK, are the negative logarithms of the equilibrium dissociation constant of the particular antagonist test compound for the receptor binding. […] Leuprolide LHRH agonist, disclosed and claimed in U.S. Pat. No. 4,005, 063, has the structure 5-oxo-[…].
The compound `COc1ccc2c(c1)CCN(CCCC(CCCNC(=O)CCc1ccc(F)cc1)(c1ccccc1)c1ccccc1)C2C` (stereo not drawn) [Example 50, 7-[N-3-(4-Fluorophenyl)propionyl]amino-1-[-1-(1,2,3,4-tetrahydro-1-methv,l-6-methoxyisoquinolinyl)1-4.4-diphenylheptane hydrochloride] gave a Ki of 2.51 nM.
Take `COc1ccc2c(c1)C(C)N(CCCC(CCCNC(=O)CCc1ccc(F)cc1)(c1ccccc1)c1ccccc1)CC2` (stereo not drawn) [Example 51, 7-[N-3-(4-Fluorophenylpropionyl]-1-FA-f 1,2,3,4-tetrahydro-1-methyl-7-methoxy-isoguinolinyl)1-4.4-diphen%-lheptanehydrochloride]: the inhibition constant Ki was 1.05 nM.
Take `CC1c2cc(Cl)ccc2CCN1CCCC(CCCNC(=O)CCc1ccc(F)cc1)(c1ccccc1)c1ccccc1` (stereo not drawn) [Example 52, 7-[N-3-(4-Fluorophenyl)propionyl]-1-[N-(1,2,3,4-tetrahydro-1-methyl-7-chloro-isoguinolinyl)-4,4-dithenylhepMtane hydrochloride]: the Ki is 3.55 nM.
Still for that read-out and setting: the figure for `CC1c2cc(F)ccc2CCN1CCCC(CCCNC(=O)CCc1ccc(F)cc1)(c1ccccc1)c1ccccc1` (stereo not drawn) [Example 53, 7-[N-3-(4-Fluorophenyy)propionyl]-1-[N-(1,2,3,4-tetrahydro-1-methyl-7-fluoro-isoquinolinyl)l-4,4-diphenylheptane hydrochloride] is 14.5 nM; for `CC1c2cc([N+](=O)[O-])ccc2CCN1CCCC(CCCNC(=O)CCc1ccc(F)cc1)(c1ccccc1)c1ccccc1` (stereo not drawn) [Example 54, 7-[N-3-(4-Fluorophenyl)Propionyl]-1-[N-(1,2,3,4-tetrahydro-1-methyl-7-nitro-isoquinolinyl)l-4,4-diphenylheiptane hydrochloride] it is 4.37 nM; for `CC(=O)Nc1ccc2c(c1)C(C)N(CCCC(CCCNC(=O)CCc1ccc(F)cc1)(c1ccccc1)c1ccccc1)CC2` (stereo not drawn) [Example 55, 7-[N-3-(4-Fluorophenyl)propionyl]-1-[N-(1,2,3,4-tetrahydro-l-methyl-7-acetylamino-isoquinolinyl)1-4.4-diphenylheptane hydrochloride] it is 8.71 nM.
In turn, `CC1c2cc(Cl)c(Cl)cc2CCN1CCCC(CCCNC(=O)CCc1ccc(F)cc1)(c1ccccc1)c1ccccc1` (stereo not drawn) [Example 56, 7-[N-3-(4-Fluorophenyl)propionyl]-1-[N-(1,2,3,4-tetrahydro-1-methyl-6,7-dichloro-isoquinolinyl)1-4.4-diphenylheptane hydrochloride] had a Ki of 3.72 nM.
Take `CC1c2cc(F)c(Cl)cc2CCN1CCCC(CCCNC(=O)CCc1ccc(F)cc1)(c1ccccc1)c1ccccc1` (stereo not drawn) [Example 57, 7-[N-3-(4-Fluorophenyl)propionyl]-1-[N-(1,2,3,4-tetrahydro-1-methyl-6-chloro-7-fluoroisoquinolinyl)1-4.4-diphenylheptane hydrochloride]: the pKI stood at 8.60.
In the case of `CC(=O)Oc1cc2c(cc1OC(C)=O)C(C)N(CCCC(CCCNC(=O)CCc1ccc(F)cc1)(c1ccccc1)c1ccccc1)CC2` (stereo not drawn) [Example 58, 7-[N-3-(4-Fluorophenyl)propionyl]-1-[N-(1,2,3,4-tetrahydro-1-methYI-6,7-diacetoxyisoquinolinyl)]-4,4-dilhenylheptane], affinity was put at a Ki of 12.3 nM.
As to `COc1cc2c(cc1Br)CCN(CCCC(CCCNC(=O)CCc1ccc(F)cc1)(c1ccccc1)c1ccccc1)C2C` (stereo not drawn) [Example 59, 7-[N-3-(4-Fluorophenyl)propionyl]-1-[N-(1,2,3,4-tetrahydro-1-methyl-6-bromo-7-methoxyisoguinolinyl)]-4,4-diphenylheptane hydrochloride], the affinity, expressed as Ki, was 1.91 nM.
In turn, `COc1cc2c(cc1F)CCN(CCCC(CCCNC(=O)CCc1ccc(F)cc1)(c1ccccc1)c1ccccc1)C2C` (stereo not drawn) [Example 60, 7-[N-3-(4-Fluorophenyl)propionyl]-1-[N-(1,2,3,4-tetrahydro-1-methyl-6-fluoro-7-methoxyisoguinofinyl)1-4.4-diphenylheptane hydrochloride] gave a Ki of 1.7 nM.
`COc1cc2c(cc1Br)C(C)N(CCCC(CCCNC(=O)CCc1ccc(F)cc1)(c1ccccc1)c1ccccc1)CC2` (stereo not drawn) [Example 61, 7-[N-3-(4-Fluorophenyl)propionyl]-1-[N-(1,2,3,4-tetrahydro-1-methyl-6-methoxy-7-bromoisoguinolinyl)1-4.4-diphenylheptane hydrochloride]: the Ki was 3.72 nM.
`COc1cc2c(cc1C)CCN(CCCC(CCCNC(=O)CCc1ccc(F)cc1)(c1ccccc1)c1ccccc1)C2C` (stereo not drawn) [Example 62, 7-[N-3-(4-Fluorophenyl)propionyl]-1-[N-(1,2,3,4-tetrahydro-1.6-dimethyl-7-methoxyisoquinolinyl)1-4.4-diphenylhelptane hydrochloride] gave a Ki of 0.501 nM.
Same read-out and setting: next, `COC(=O)c1cc2c(cc1OC)C(C)N(CCCC(CCCNC(=O)CCc1ccc(F)cc1)(c1ccccc1)c1ccccc1)CC2` (stereo not drawn) [Example 63, 7-[N-3-(4-Fluorophenyl)propionyl]-1-[N-(1,2,3,4-tetrahydro-1-methyl-6-carbomethoxy-7-methoxyisoguinolinyl)1-4.4-diphenylhentane hydrochloride]: 6.76 nM; `COc1cc2c(cc1Br)CCN(CCCC(CCCNC(=O)CCc1ccc(F)cc1)(c1ccccc1)c1ccccc1)C2C1CCC1` (stereo not drawn) [Example 64, 7-[N-3-(4-Fluorophenyl)propionyl]amino-1-[N-(1,2,3,4-tetrahydro-1-cyclobutyl-6-bromo-7-methoxyisoquinolinyl)l-4,4-diiphenylheptane hydrochloride]: 6.03 nM; `COc1cc2c(cc1OC)C(C)N(CCCC(CCCNC(=O)CCc1ccc(F)cc1)(c1ccccc1)c1ccccc1)C(C)C2` (stereo not drawn) [Example 65, 7-[N-3-(4-Fluorophenyl)propionyl]-1-[N-(1,2,3,4-tetrahydro-1.3-dimethyl-6,7-dimethoxyisoguinolinyl)1-4.4-diphenylheptane hydrochloride]: 0.0363 nM.
On the same count and under the same terms, the figure for `COc1cc2c(cc1OC)CN(CCCC(CCCNC(=O)CCc1ccc(F)cc1)(c1ccccc1)c1ccccc1)C(C)C2` (stereo not drawn) [Example 66, 7-[N-3-(4-Fluorophenyl)propionyl]-1-[N-(1,2,3,4-tetrahydro-3-mekyl-6,7-dimethoxyisoguinolinyl)]-4,4-diphenylheptane hydrochloride] is 0.617 nM.
`COc1cc2c(cc1OC)C(C)(C)N(CCCC(CCCNC(=O)CCc1ccc(F)cc1)(c1ccccc1)c1ccccc1)CC2` [Example 67, 7-[N-3-(4-Fluorophenyl)propionyl]-1-[N-(1,2,3,4-tetrahydro-1.1-dimethyl-6,7-dimethoxyisoguinolinyl)1-4.4-diphenylheptane hydrochloride] showed a Ki of 2.51 nM. Against the preceding compound, the Ki is about 4.1-fold higher.
Same read-out and setting: next, `COc1ccc2c(c1)C(C)N(CCCC(CCCNC(=O)CCc1ccc(F)cc1)(c1ccccc1)c1ccccc1)C(C)C2` (stereo not drawn) [Example 68, 7-[N-3-(4-Fluorophenyl)propionyl]-1-rN-(1,2,3,4-tetrahydro-1.3-dimethyl-7-methoxyisoquinolinyl)1-4.4-diphenylheiltane hydrochloride]: 2.51 nM; `COc1cc2c(cc1OC)C(C)N(CCCC(CCCNC(=O)CCc1ccc(F)cc1)(c1ccccc1)c1ccccc1)CCC2` (stereo not drawn) [Example 69, 7-[N-3-(4-Fluorophenyl)propionyl]-1-[N-(2,3,4,5-tetrahydro-1-methyl-7.8-dimethoxy-I H-2-benzazepinyl)1-4.4-diphenylheptane hydrochloride]: 12.6 nM.

Staying with this assay, now noted: Table 3: compounds of formula (VII), by substituent R'.
Take `COc1cc2c(cc1OC)C(C)N(CCCC(CCCNC(=O)CCc1ccccc1)(c1ccccc1)c1ccccc1)CC2` (stereo not drawn) [Example 72]: the Ki is 3.16 nM. This lies in the single-digit nanomolar range.
Same read-out and setting: next, `COc1cc2c(cc1OC)C(C)N(CCCC(CCCNC(=O)CCc1ccc(Cl)c(Cl)c1)(c1ccccc1)c1ccccc1)CC2` (stereo not drawn) [Example 73]: 2.19 nM; `COc1cc2c(cc1OC)C(C)N(CCCC(CCCNC(=O)CCc1ccc(F)c(Cl)c1)(c1ccccc1)c1ccccc1)CC2` (stereo not drawn) [Example 76]: 3.98 nM; `COc1cc2c(cc1OC)C(C)N(CCCC(CCCNC(=O)CCc1ccc(Cl)cc1)(c1ccccc1)c1ccccc1)CC2` (stereo not drawn) [Example 79, 7-[N-3-(4-chlorophenol)propionyl]amino-1-[N-(I .2.3,4-tetrahydro-1-methyl-6,7-dimethoxyisoguinolinyl)1-4,4-diphenylheptane hydrochloride]: 0.195 nM.
